Reference: publication PMC4507497 (Chemistry & biology, 2015)
Several values for one entry are separate records, joined by “and”; a condition that tells them apart may be missing. Equal values may be shown once. No end group written: not given here.

Columns and labels:
[1] = test system: three tested frog ORs; experiment: cAMP inhibition, the three tested frog ORs; format: cell-based, Rana pipiens; settings: frog KOR, MOR, DOR; cAMP assay
[2] = test system: h-rpMOR-E2h (h-rpMOR-EL2h); experiment: Inhibition of isoproterenol-stimulated cAMP response, chimera h-rpMOR-E2h; format: cell-based, human / Rana pipiens; settings: for EC50 / log EC50 ±SEM: Table 3, h-rpMOR-E2h, HEK 293T cells
[3] = test system: h-rpMOR-E3h (h-rpMOR-EL3h); experiment: Inhibition of isoproterenol-stimulated cAMP response, chimera h-rpMOR-E3h; format: cell-based, human / Rana pipiens; settings: for EC50 / log EC50 ±SEM: Table 3, h-rpMOR-E3h, HEK 293T cells
[4] = target: Frog MOR (rpMOR) (Lithobates pipiens, UniProt Q7T069); experiment: cell-based; parameters: species or system Rana pipiens
[5] = test system: h-rpMOR-wt (rpMOR with humanized N-terminus); experiment: Inhibition of isoproterenol-stimulated cAMP response, chimera h-rpMOR-wt; format: cell-based, human / Rana pipiens; settings: Table 3, HEK 293T cells
[6] = test system: human DOR; settings: human (but not murine) DOR; cited from earlier work
[7] = target: Frog KOR (Lithobates pipiens, UniProt B0JCV9); experiment: Inhibition of isoproterenol-induced cAMP production; format: cell-based, Rana pipiens
[8] = test system: Frog DOR; format: cell-based, Rana pipiens; settings: Table 2, HEK 293T cells; for EC50: NA = not active
[9] = test system: human DOR (Leu300Trp); experiment: Inhibition of cAMP response, hDOR Leu300Trp mutant; format: cell-based; settings: hDOR Leu300Trp vs hDOR
[10] = test system: ORs in the brains and spinal cord; settings: Rana pipiens tissue; cited from earlier work
[11] = test system: rpDOR Trp301Leu (7.35); experiment: Functional and binding studies, rpDOR mutant Trp301Leu; format: cell-based, Rana pipiens
[12] = test system: rpDOR mutants Met287Leu, Asn294Asp and Tyr296Leu; experiment: Functional studies, rpDOR mutants Met287Leu, Asn294Asp and Tyr296Leu; format: cell-based, Rana pipiens; settings: data not shown
[13] = target: rpMOR; experiment: Competition binding with radiolabeled diprenorphine, rpMOR; parameters: species or system Rana pipiens; settings: Table 3, [3H]-diprenorphine competition
[14] = target: h-rpMOR-E3h; experiment: Competition binding with radiolabeled diprenorphine, h-rpMOR-E3h; parameters: species or system human / Rana pipiens; settings: Table 3, [3H]-diprenorphine competition
[15] = target: h-rpMOR-wt; experiment: Competition binding with radiolabeled diprenorphine, h-rpMOR-wt; parameters: species or system human / Rana pipiens; settings: Table 3, [3H]-diprenorphine competition
[16] = target: h-rpMOR-E2h (h-rpMOR EL2h); experiment: Competition binding with radiolabeled diprenorphine, h-rpMOR-E2h; parameters: species or system human / Rana pipiens; settings: Table 3, [3H]-diprenorphine competition
[17] = target: Human DOR (Homo sapiens, UniProt P41143); experiment: cell-based
[18] = target: Human KOR (Homo sapiens, UniProt P41145); experiment: cell-based
[19] = relative to chimera with humanized N-terminus only

Human DOR, sequence (P41143 whole entry): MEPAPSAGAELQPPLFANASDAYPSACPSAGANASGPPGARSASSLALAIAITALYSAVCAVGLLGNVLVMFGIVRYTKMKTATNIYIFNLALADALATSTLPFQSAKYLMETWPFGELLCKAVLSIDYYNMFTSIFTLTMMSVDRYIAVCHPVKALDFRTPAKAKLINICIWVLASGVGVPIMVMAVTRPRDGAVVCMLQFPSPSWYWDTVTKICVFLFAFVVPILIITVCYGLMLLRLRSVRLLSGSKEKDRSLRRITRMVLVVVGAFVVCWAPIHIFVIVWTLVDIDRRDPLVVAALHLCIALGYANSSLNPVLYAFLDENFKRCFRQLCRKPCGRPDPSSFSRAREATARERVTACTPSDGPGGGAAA
Frog KOR, sequence (B0JCV9 1-390): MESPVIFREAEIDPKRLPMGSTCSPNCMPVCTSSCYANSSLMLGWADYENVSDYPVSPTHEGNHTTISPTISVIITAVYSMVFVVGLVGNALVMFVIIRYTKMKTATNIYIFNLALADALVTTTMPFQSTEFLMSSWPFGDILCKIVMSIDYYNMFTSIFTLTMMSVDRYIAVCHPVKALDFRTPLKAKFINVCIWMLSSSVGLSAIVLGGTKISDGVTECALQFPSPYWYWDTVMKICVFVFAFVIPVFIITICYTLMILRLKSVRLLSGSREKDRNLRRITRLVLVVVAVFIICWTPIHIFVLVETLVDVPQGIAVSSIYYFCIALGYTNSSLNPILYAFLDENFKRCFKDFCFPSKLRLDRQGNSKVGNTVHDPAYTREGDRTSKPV
Frog MOR (rpMOR), sequence (Q7T069 1-388): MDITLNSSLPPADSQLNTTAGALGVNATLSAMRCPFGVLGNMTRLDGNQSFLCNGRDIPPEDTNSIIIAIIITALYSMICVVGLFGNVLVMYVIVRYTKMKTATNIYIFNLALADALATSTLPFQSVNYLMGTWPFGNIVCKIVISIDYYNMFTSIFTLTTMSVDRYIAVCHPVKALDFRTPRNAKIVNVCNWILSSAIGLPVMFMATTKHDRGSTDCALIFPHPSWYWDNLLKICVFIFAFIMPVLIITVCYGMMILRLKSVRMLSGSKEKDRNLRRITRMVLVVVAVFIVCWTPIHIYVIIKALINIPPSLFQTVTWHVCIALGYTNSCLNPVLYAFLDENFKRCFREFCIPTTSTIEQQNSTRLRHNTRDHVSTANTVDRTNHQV
Human KOR, sequence (P41145 whole entry): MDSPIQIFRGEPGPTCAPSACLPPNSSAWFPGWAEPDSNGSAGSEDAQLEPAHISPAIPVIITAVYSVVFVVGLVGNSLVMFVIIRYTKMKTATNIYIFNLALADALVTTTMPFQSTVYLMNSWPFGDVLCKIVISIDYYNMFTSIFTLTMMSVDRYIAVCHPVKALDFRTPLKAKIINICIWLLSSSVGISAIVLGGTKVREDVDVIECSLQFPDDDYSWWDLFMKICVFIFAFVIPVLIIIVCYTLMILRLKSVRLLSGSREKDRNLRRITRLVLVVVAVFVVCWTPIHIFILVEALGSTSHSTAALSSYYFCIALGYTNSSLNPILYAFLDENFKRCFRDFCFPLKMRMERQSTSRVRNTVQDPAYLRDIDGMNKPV

CC(C)[C@H](NC(=O)[C@H](CC(=O)O)NC(=O)[C@H](Cc1ccccc1)NC(=O)[C@@H](C)NC(=O)[C@@H](N)Cc1ccc(O)cc1)C(=O)N[C@H](C(=O)NCC(N)=O)C(C)C [Deltorphin C, Tyr-D-Ala-Phe-Asp-Val-Val-Gly-NH2]
agonist activity at the three tested frog ORs [1]: inactive

NC(=O)[C@H](Cc1ccccc1)NC(=O)[C@H](Cc1ccccc1)NC(=O)[C@@H]1CCCN1C(=O)[C@@H](N)Cc1ccc(O)cc1 [Endomorphin 2]
EC50 [2]: 190 nM | log EC50 ±SEM [2]: −6.7 ± 0.32 M | EC50 [3]: 32 nM | EC50 ([4]; EC50): 782 nM and 920 nM | EC50 ([4]; log EC50 ±SEM): 794 nM and 1000 nM | EC50 [5]: 93 nM

DIPP-NH2
agonist activity [6]: weak partial agonist activity

YGGFIRKPDKYKFLNA [Xendorphin]
activity at frog and human KORs compared [7]: equally active

CC(C)C[C@@H](NC(=O)[C@H](Cc1ccccc1)NC(=O)CNC(=O)[C@@H](C)NC(=O)[C@@H](N)Cc1ccc(O)cc1)C(=O)O [DADLE, [D-Ala^2,D-Leu^5]-enkephalin]
EC50 ([4]; EC50): 480 nM | EC50 ([4]; log EC50 ±SEM): 501 nM | log EC50 ±SEM [8]: −6.5±0.06 logM | EC50 [8]: 353 nM

deltorphin
decrease of potency by the L300W mutation [9]: ~2000 fold | affinities to ORs in the brains and spinal cord [10]: 30 to 80 µM | response of the mutant compared to rpDOR [11]: substantially increased potency and affinity | response of the mutants [12]: did not respond

C[C@@H](NC(=O)[C@@H](N)Cc1ccc(O)cc1)C(=O)NCC(=O)N(C)[C@@H](Cc1ccccc1)C(=O)NCCO [DAMGO, [D-Ala^2,N-MePhe^4,Gly-ol]-enkephalin]
Ki [13]: 160 nM | EC50 [2]: 81 nM | log EC50 ±SEM [2]: −7.1 ± 0.07 M | Ki [14]: 120 nM | EC50 [3]: 22 nM | log EC50 ±SEM [3]: −7.7 ± 0.07 M | Ki [15]: 100 nM | EC50 ([4]; EC50): 1500 nM and 1900 nM | EC50 ([4]; log EC50 ±SEM): 1580 nM and 2000 nM | EC50 ([7]; EC50, Table 2, HEK 293T cells, NA = not active): 2400 nM | EC50 ([7]; log EC50 ±SEM, Table 2, HEK 293T cells): 2510 nM | EC50 [5]: 96 nM | log EC50 ±SEM [5]: −7.0 ± 0.08 M | Ki [16]: 80 nM

NC(=O)[C@H](Cc1ccccc1)NC(=O)[C@H](Cc1c[nH]c2ccccc12)NC(=O)[C@@H]1CCCN1C(=O)[C@@H](N)Cc1ccc(O)cc1 [Endomorphin 1]
EC50 [2]: 95 nM | EC50 ([4]; EC50): 381 nM and 360 nM | EC50 ([4]; log EC50 ±SEM): 398 nM and 316 nM | EC50 [5]: 43 nM | log EC50 ±SEM [5]: −7.4 ± 0.07 M

CC(C)C[C@H](NC(=O)[C@H](Cc1ccccc1)NC(=O)CNC(=O)CNC(=O)[C@@H](N)Cc1ccc(O)cc1)C(=O)N[C@@H](CCCN=C(N)N)C(=O)N[C@@H](CCCN=C(N)N)C(=O)N[C@@H](CCC(N)=O)C(=O)N[C@@H](Cc1ccccc1)C(=O)N[C@@H](CCCCN)C(=O)N[C@H](C(=O)N[C@H](C(=O)N[C@H](C(=O)O)[C@@H](C)O)C(C)C)C(C)C [Dynorphin B]
EC50 ([17]; EC50): 360 nM | EC50 ([17]; log EC50 ±SEM): 398 nM | EC50 ([4]; EC50): 5200 nM | EC50 ([4]; log EC50 ±SEM): 5010 nM | EC50 ([7]; EC50): 170 nM | EC50 ([7]; log EC50 ±SEM): 158 nM

YGGFLRKYPK [α-Neoendorphin]
EC50 ([18]; EC50): 11 nM | EC50 ([18]; log EC50 ±SEM): 10 nM | EC50 ([17]; EC50): 1600 nM | EC50 ([17]; log EC50 ±SEM): 1580 nM | fold less potent at the frog KOR [7]: 10 fold | EC50 ([7]; EC50): 78 nM | EC50 ([7]; log EC50 ±SEM): 79.4 nM | log EC50 ±SEM [8]: −5.8±0.08 logM | EC50 [8]: 1600 nM

C[C@@H](NC(=O)[C@@H](N)Cc1ccc(O)cc1)C(=O)N[C@@H](Cc1ccccc1)C(=O)NCC(=O)N[C@@H](Cc1ccc(O)cc1)C(=O)N1CCC[C@H]1C(=O)N[C@@H](CO)C(N)=O [Dermorphin]
Ki [13]: 1640 nM | EC50 [2]: 40 nM | log EC50 ±SEM [2]: −7.4 ± 0.07 M | enhancement of receptor activation by humanization of EL2 [2, 19]: ~ 10 fold | affinities to ORs in the brains and spinal cord [10]: 30 to 80 µM | EC50 [3]: 130 nM | log EC50 ±SEM [3]: −6.9 ± 0.1 M | enhancement of receptor activation by humanization of EL3 [3, 19]: ~ 2 fold | EC50 [5]: 230 nM | log EC50 ±SEM [5]: −6.7 ± 0.08 M | Ki [16]: 112 nM
